{
  "source": "patent US6075009A",
  "about": "“Neuropeptide Y analogues, compositions and methods of lowering blood pressure” (East Carolina University, priority 1995, dated 2000)",
  "system": "mean arterial pressure and heart rate",
  "experiment": "In vivo blood pressure and heart rate after intravenous dosing in normotensive rats",
  "parameters": "species or system Sprague-Dawley rats",
  "procedure": "Male Sprague-Dawley rats obtained from Charles River Laboratories, Wilmington, Mass., and weighing 276-300 g, were group housed at 22° C. and kept on 12 hour light/dark cycle. Food and water were provided ad lib. Animals were anesthetized with sodium pentobarbital (65 mg/kg) and under sterile conditions a one-inch incision was made in the fold of the left leg to expose the femoral blood vessels. Two lengths of PE-50 tubing filled with 10% heparin were inserted into the left femoral artery and left femoral vein for measurement of blood pressure and for drug delivery, respectively. The tubings were tunneled under the skin and exposed through the mid-scapular region. Animals were allowed at least 24 hours recovery prior to experiments. A force transducer (Spectramed Model P23XL, Grass Instruments, Quincy, Mass., USA), and tachograph (Model 7P44D, Grass Instruments) was used for recording of systolic and diastolic pressures and heart rate from the femoral artery catheter. Patency of catheters was verified by flushing with either saline or 10% heparin. A dose of either 30, 100, 500, 800 or 1000 nM/kg ([…]) of NPY27-36 (D-Tyr^27,36, D-Thr^32) (prepared as described in Example 1 above), or saline was delivered to the animal via the catheter in the left femoral vein. Changes in systolic and diastolic pressures and heart rater were recorded from the catheter in the left femoral artery over a 10 minute time interval.",
  "key": {"[1]": {"conditions": "i.v., 30-1000 nM/kg, normotensive Sprague-Dawley rats, recorded over 10 min"}},
  "note": "Square brackets hold non-standard residues; d marks the D form. Ends that are not written are not given here.",
  "data": [
    {"substance": "D-Tyr-Ile-Asn-Leu-Ile-D-Thr-Arg-Gln-Arg-D-Tyr-NH2 ([dY]INLI[dT]RQR[dY]-NH2; N-terminus assumed; SMILES CC[C@H](C)[C@H](NC(=O)[C@H](N)Cc1ccc(O)cc1)C(=O)N[C@@H](CC(N)=O)C(=O)N[C@@H](CC(C)C)C(=O)N[C@H](C(=O)N[C@@H](C(=O)N[C@@H](CCCNC(=N)N)C(=O)N[C@@H](CCC(N)=O)C(=O)N[C@@H](CCCNC(=N)N)C(=O)N[C@H](Cc1ccc(O)cc1)C(N)=O)[C@H](C)O)[C@@H](C)CC) [NPY27-36 (D-Tyr^27,36, D-Thr^32)]", "values": [
      {"measurement": "changes in pressure and heart rate vs saline treatment", "setting": "i.v. doses of 30 and 100 nM/kg", "value": "failed to produce changes that were significantly different from saline treatment"},
      {"measurement": "mean arterial pressure vs saline-treated controls", "setting": "i.v. doses of 500, 800 and 1000 nM/kg", "value": "significantly different decreases in mean arterial pressure"},
      {"measurement": "heart rate vs saline controls", "setting": "i.v. doses of 500 and 1000 nM/kg", "value": "significantly different increases in heart rate"},
      {"measurement": "heart rate, dose-response", "setting": "[1]", "value": "increase in heart rate"},
      {"measurement": "mean arterial pressure, dose-response", "setting": "[1]", "value": "dose-dependent decrease in mean arterial pressure"}
    ]}
  ]
}
